Data taken from US8802929B2, “MIR164 gene that controls plant root system development and fertility and use thereof” (Huazhong Agricultural University, priority 2009, dated 2014).

Experiments:
[1] = tested on: transgenic plants overexpressing miR164; experiment: Restoration of fertility of transgenic plants overexpressing miR164 by external application of hormones; assay type: in vivo, rice; settings: two T0 transgenic plants; four phytohormones (IAA, NAA, KT, 6-BA) applied continually from tillering stage to grain filling stage; FIG. 7
From the text: Two T0 transgenic plants overexpressing miR164 were continually subjected to external application of four phytohormones, indoleacetic acid (IAA), naphthaleneacetic acid (NAA), kinetin (KT), and 6-benzylaminopurine (6-BA) from tillering stage to grain filling stage, and compared with the transgenic plants overexpressing miR164 grown normally. […] That the fertility of transgenic rice plants overexpressing miR164 could be restored by external application of hormones can be taken advantage of to conveniently use a transgenic rice plant to breed a sterile line (without application of hormones) or a maintainer line (by external application of hormones to allow the sterile line to produce seeds and to be reproduced; however the next generation is still sterile without externally applied hormones), thereby achieving “the double usage of a single line” for the breeding of hybrid rice.

miR164 = experiment: Expression level of mature miR164 after phytohormone treatment, Northern blotting; assay type: in vivo, rice variety Minghui 63 (Oryza sativa L. ssp. Indica); settings: hormone sprayed onto rice plants at 4-leaf stage; for change in expression of miR164 after phytohormone treatment: leaves, Northern blotting, FIG. 3
Method: The indica rice variety “Minghui 63” was used for expression profile analysis. Phytohormone treatment was carried out by evenly spraying the hormones onto the surfaces of the rice plants at the 4-leaf stage obtained from seeds which had been induced to germinate and cultivated under normal growth conditions for 18-20 days. The plants treated with kinetin and gibberellin were sampled before treatment as well as 1 min, 5 min, 10 min, 20 min, 30 min, 1 h, and 3 h after treatment. The plants treated with naphthaleneacetic acid were sampled before treatment as well as 30 min, 3 h, 9 h and 24 h after treatment. The plants treated with brassinolide were sampled before treatment as well as 15 min, 30 min, 1 h, 3 h, 6 h, 9 h and 21 h after treatment. Light treatment of etiolated shoots was performed by subjecting seeds to induction of germination and continuous cultivation in dark for 14 days followed by transferring the etiolated shoots to normal lighting conditions. Samples were taken before light treatment as well as 3 h, 6 h and 9 h after light treatment. Total RNA was extracted from leaves using Trizol reagent (Invitrogen Corp.), and then transferred to membrane as described by Xie et al. (Xie K, Wu C, and Xiong L. Genomic organization, differential expression, and interaction of SQUAMOSA promoter-binding-like transcription factors and microRNA156 in rice. Plant Physiol, 2006, 142: 280-293). Northern hybridization was performed using miR164 as the probe. […] The expression level of miR164 increased 24 hours after naphthaleneacetic acid (NAA) treatment.

rice root system = experiment: Root system phenotype of transgenic plants overexpressing miR164 on 1/2 MS medium; assay type: in vivo; settings: overexpression under ubiquitin promoter; 10 days on 1/2 MS basal media; FIG. 5
Method: In this example, transgenic plants overexpressing miR164 (FIG. 4) and wild-type plants were grown in ½ MS medium and observed for their phenotypes. The procedure was carried out as follows, Rice seeds from transgenic lines overexpressing miR164 were husked and disinfected (75% alcohol treatment for 3 minutes followed by 0.15% HgCl2 treatment for 30 minutes, and rinsed with sterile water for several times), and then allowed to germinate on the ½ MS basal media containing 50 mg/L hygromycin. One day later, the rice seeds from wild-type control lines were placed on the ½ MS basal media without hygromycin and allowed to germinate. Two to three days later, well germinated and consistently grown seeds were transferred to ½ MS basal media and cultivated in an illumination incubator (which simulated natural growth condition of 14-hour light and 10-hour darkness) for 10 days for phenotype observation. More than 30 plants were selected for each of the transgenic and wild-type plant lines, and each experiment was run in triplicate.

rice pollens = experiment: Fertility phenotype of transgenic plants overexpressing miR164 (iodine staining of pollens); assay type: in vivo; settings: overexpression under ubiquitin promoter; FIG. 6
From the text: This abnormality made the glumes unable to open such that the filaments, although elongated, could not extend out of the glumes (FIG. 6B). […] Moreover, the ovaries of most of the transgenic plants overexpressing miR164 stopped growing or even died (FIG. 6C to 6E). The development of anthers in the transgenic plants overexpressing miR164 was abnormal. […] The pollens of the transgenic plants overexpressing miR164 were not in the normal globular shape, but were shrunken (FIG. 6F to 6K). […] The sterility of the transgenic plants overexpressing miR164 could be utilized to conveniently breed a rice sterile line for hybrid rice breeding.

Row | Molecule | seed production of transgenic plants overexpressing miR164 after external application of hormones [1] | change in expression of miR164 after phytohormone treatment (miR164) | further results
1 | c1ccc(CNc2ncnc3nc[nH]c23)cc1 [6-benzylaminopurine, 6-Benzylaminopurine] | produce seeds normally |  | 
2 | c1coc(CNc2ncnc3[nH]cnc23)c1 [Kinetin] | produce seeds normally | decreased gradually | 
3 | CC(C)[C@H](C)[C@@H](O)[C@H](O)[C@@H](C)[C@H]1CC[C@H]2[C@@H]3COC(=O)[C@H]4C[C@H](O)[C@H](O)C[C@]4(C)[C@H]3CC[C@]12C [brassinolide] |  | no obvious change | 
4 | O=C(O)Cc1c[nH]c2ccccc12 [indoleacetic acid, Indole-3-acetic acid] | produce seeds normally |  | 
5 | gibberellin |  | increased | time of peak miR164 expression after treatment (miR164; then dropping to the level before treatment): 10 min
6 | miR164: mature microRNA (SEQ ID NO: 2) from the rice miR164 gene (SEQ ID NO: 1), overexpressed in rice under a ubiquitin promoter (UGGAGAAGCAGGGCACGUGCA; listed as Oryza sativa) |  |  | root system of transgenic plants versus wild-type plants (rice root system): obviously larger root systems; pollen fertility of transgenic plants (iodine staining) (rice pollens): completely sterile
